Tests used:
[1] = test system: allergically induced bronchospasm; assay: allergically induced bronchospasm in the guinea pig (modified Konzett-Rossler bronchospasmolysis); type: in vivo; settings: Cavia porcellus, iv, 0.25 h, test substance intravenously, ovalbumin-triggered bronchial constriction 15 minutes later, read-out: inhibitory effect (ID50) in allergically induced bronchospasm
Source text: The compounds of the invention are characterized by good antiallergic and antiasthmatic effect.
The test model used to determine these values was a modification of the bronchospasmolysis experiment described by Konzett and Rossler (1).
The animals were narcoticized with urethane (1.5 g/kg i.p.). Trachea and v. jugularis were exposed by means of a skin incision. A tracheal cannula (Our own construction) was fitted to permit the intravenous application of propanolol, ovalbumin and a test substances, and which also permitted artificial respiration (Starling Pump, Braun Melsungen) and measurement of the intratracheal pressure (pressure uptake: Venous Pressure Transducer, Statham, type W 101 connected to a bridge amplifier, Hellige and Multicorder 6-channel ink plotter, Watanabe, type: WA 621-1). The entire preparation was completed after about 15 minutes. During the subsequent experiment the animals were ventilated with 40 breaths per minute and a volume of about 1 ml room air/100 g body weight. The intratracheal pressure was adjusted by this means to 10-15 cm water column. After a habituation phase of about 30 minutes, the test substances were administered intravenously. Propanolol was administered 10 minutes later. […] The resultant increase in intratracheal pressure was recorded on the plotter for at least 15 minutes.

[2] = test system: histamine-precontracted trachea; assay: histamine-precontracted trachea model (after Foster)

| IC50 [2] | Structure (SMILES) | ED50 [1] |
| --- | --- | --- |
| 35.5 µM | CNCCCC(CC(=O)O)n1nc(Cc2ccc(Cl)cc2)c2ccccc2c1=O (stereo not shown) [Example 6, 4-(4-chlorobenzyl)-2-[5-methylamino-1-carboxy-t-2-pentyl]-1(2H) -phthalazinone] | 0.8 µg/kg |
| 3.86 µM | CNCCC(CCC(=O)O)n1nc(Cc2ccc(Cl)cc2)c2ccccc2c1=O (stereo not shown) [Example 3, 4-(4-chlorobenzyl)-2-(5-methylamino-1-carboxy-3-pentyl)1(2H) -phthalazinone] | 9.9 µg/kg |
